Measurements published in patent publication US5874472A, “Aminoacid derivatives as no synthase inhibitors” (Glaxo Wellcome Inc., priority 1993, dated 1999).

Key:
inducible human NOS = target: T1, inducible human NOS (Homo sapiens, UniProt P35228); test: Inhibition of inducible human NOS (citrulline formation), enzyme from cytokine-induced DLD-1 cells; type: biochemical; conditions: NOS from cytokine-induced DLD-1 cells; 1 μM L-[14C] arginine; pH 7.4; 10 μM FAD, no calmodulin/CaCl2
T1 construct: Purification of NOS cytokine-induced human colorectal adenocarcinoma DLD-1 cells; host or cells: DLD-1 cells induced with interferon-gamma, interleukin-6, tumor necrosis factor and interleukin-1beta; 2',5' ADP Sepharose purified
Procedure: (§1) NOS was assayed for the formation of citrulline following the procedure of Schmidt et al (PNAS 88 365-369, 1991) with these modifications: 20 mM Hepes, pH 7.4, 10 μg/ml calmodulin, 2.5 mM CaCl2 2.5 mM DTT, 125 μM NADPH 10 μM H4 Biopterin, 0.5 mg/ml BSA, and 1 μM L-[^14 C] arginine (New England Nuclear). Linearity of NOS-catalyzed rate was confirmed prior to kinetic studies that used single time point determination of rate.
Purification of NOS cytokine-induced human colorectal adenocarcinoma DLD-1 cells.
DLD-1 (ATCC No. CCL 221) were grown at 37° C., 5% CO2 in RPMI 1640 medium supplemented with L- glutamin, penicillin, streptomycin, and 10% heat-inactivated fetal bovine serum. Cells were grown to confluency and then the following cocktail of cytokines were added: 100 units/ml interferon-gamma, 200 units/ml interleukin-6, 10 ng/ml tumor necrosis factor, and 0.5 ng/ml interieukin-1β. At 10-24 hr post-induction, cells were harvested by scraping and washed with phosphate-buffered saline. Pelleted cells were stored at -70° C. Purification of the induced NOS was performed at 4° C. Crude extract was prepared by three cycles of freeze/thawing cells in TDGB (20 mM tris pH 7.5, 10% glycerol, 1 mM DTT, 2 μM tetrahydrobiopterin). Extract was applied directly onto a column of 2',5' ADP sepharse (Pharmacia). Resin was sequentially washed with TDGB, 0.5 M NaCl in TDGB, TDGB. NOS was eluted with 2 mM NADPH in TDGB. BSA was immediately added to give a final concentration of 1 mg/ml. NOS could be quick frozen and stored at -70° C. without loss in activity for at least 2 months.
Assay for inducible human NOs.
The formation of citrulline was assayed as described above except that 10 μM FAD was included and calmodulin and CaCl2 were excluded from the assay mix.

human placental NOS = target: T2, human placental NOS (Homo sapiens, UniProt P29474); test: Inhibition of human placental NOS (citrulline formation); type: biochemical; conditions: 1 μM L-[14C] arginine; pH 7.4; calmodulin, CaCl2
T2 construct: Purification of NOS from human placenta; from tissue; host or cells: fresh human placenta, amnion and chorion removed; ammonium sulfate and 2',5' ADP agarose purified
Procedure: It is noted that the NO synthase isolated from human placenta most probably represents the endothelial constitutive isoenzyme.
Purification of NOS from human placenta.
Amion and chorion were removed from fresh placenta, which was then rinsed with 0.9% NaCl. The tissue was homogenized in a Waring blender in 3 volumes of HEDS buffer (20 mM Hepes pH 7.8, 0.1 mM EDTA, 5 mM DTT, 0.2M sucrose) plus 0.1 mM PMSF.
The homogenate was filtered through cheesecloth and then centrifuged at 1000 g for 20 min. The supernatant was recentrifuged at 27500 g for 30 min. Solid ammonium sulfate was added to the supernatant to give 32% saturation. Precipitated protein was pelleted at 25,000 g and then redissolved in a minimal volume of HEDS buffer plus 0.1 mM PMSF, 10 μg/ml leupeptin and soybean trypsin inhibitor, and 1 μg/ml pepstatin. The redissolved pellet was centrigued at 15000 g for 10 min. To the supernatant was added 1/20 volume of 2',5' ADP agarose resin (Sigma), and the slurry was mixed slowly overnight. In morning, slurry was packed into a column. The resin was sequentially washed with HEDS, 0.5M NaCl in HEDS, HEDS, and then NOS was eluted with 10 mM NADPH in HEDS. The enzyme could be concentrated by ultrafiltration and quick frozen and stored at -70° C. without loss in activity for at least 6 months.
Assay for human placental NOS
as §1

human brain NOS = target: T3, human brain NOS (Homo sapiens, UniProt P29475); test: Inhibition of human brain NOS (citrulline formation); type: biochemical; conditions: Schmidt et al. 1991 procedure, 10 μM tetrahydrobiopterin included
T3 construct: Purification of NOS from human brain; from tissue; host or cells: frozen human brain; ammonium sulfate, 2',5' ADP-agarose, calmodulin-agarose
Procedure: Purification of NOS from human brain
Human brain NOS was prepared using variations of the procedures of Schmidt et al. (PNAS 88 365-369, 1991), Mayer et al. (Fed. Eur. Biochem. Soc. 288 187-191, 1991), and Bredt and Snyder, (PNAS 87 682-685, 1990). Briefly, frozen human brain (1050 gm) was homogenized in cold buffer A (50 mM HEPES, pH 7.5 (pH at RT) and 0.5 mM EDTA, 10 mM DTT, 3.6 L total volume) with a polytron. The mixture was centrifuged at 13,000 g for 1 hour and the supernatant was removed (about 2050 ml). To the supernatant, solid aimmonium sulfate (365 gm, about 30% of saturation) was added and stirred slowly for a total of 30 minutes. The precipitate was pelleted at 13,000 g for 30 minutes and the pellet was resuspended in ~400 mls of buffer A with 4 μM tetrahydrobiopterin, 1 μM FAD (Sigma), 1 μM FMN (Sigma). The solution was centrifuged at 41,000 g for 60 minutes. The supernatant was removed, frozen by pouring into liquid nitrogen, and stored overnight at -70° C. The mixture was thawed and passed through a 2',5' ADP-agarose column (0.4 g swelled in buffer A) at 4 ml/min. The column was washed with 100 ml buffer A, 200 ml buffer A with 500 mM NaCl, 100 ml Buffer A, then 30 ml buffer A with 5 mM NADPH. To the enzyme eluted from the column was added glycerol to 15%, CaCl2 to 1 mM, tetrahydrobiopterin to 10 μM, tween to 0.1% and FAD, FMN to 1 μM each. The enzyme was then passed through a 1 ml calmodulin-agarose column which had been equilibrated in Buffer A, 15% glycerol and 1 mM CaCl2. The column was washed with 15 ml Buffer A, 15% glycerol and 1 mM CaCl2, 15 ml of Buffer A, 15% glycerol and 5 mM EDTA, and then enzyme activity was eluted with 3 ml of Buffer A, 15% glycerol and 5 mM EDTA, 1 M NaCl. To the enzyme was added tetrahydrobiopterin to 10 μM, FAD and FMN to 1 μM, and tween to 0.1%. This solution was concentrated by centriprep-30 to a volume of approximately 500 μl. Human NOS was prepared completely analogously except the calmodulin-agarose column was not used. Enzyme activity was determined as described by Schmidt et al. 1991, except that 10 μM tetrahydrobiopterin was included in the assay.

[1] = phenylalanine-loaded rat; Chemical Abstracts vol. 89, 191755v; cited from earlier work
NO synthase = conditions: background statement; cited from earlier work

Compound | Ki (inducible human NOS) | Ki (human placental NOS) | Ki (human brain NOS) | renal excretion of cystine [1] | renal excretion of lysine [1] | inhibition of the synthesis of NO from L-arginine (NO synthase) | selectivity between constitutive and inducible NO synthase (NO synthase)
N=C(NCc1ccc(CC(N)C(=O)O)s1)NC1CC1 (racemic) [Compound 21, 3-(5-(N'-cyclopropylguanidino)methyl)-2-thienyl)-DL-alanine] | > 50 µM | > 50 µM | > 50 µM | – | – | – | –
CSC(=N)NCc1ccc(CC(N)C(=O)O)s1 (racemic) [Compound 22, 3-(5-((S-methylisothioureido)methyl)-2-thienyl-DL-alanine] | > 50 µM | > 50 µM | > 50 µM | – | – | – | –
CSC(=N)NCc1ccc(C(N)C(=O)O)s1 (racemic) [Compound 24] | > 50 µM | > 50 µM | > 50 µM | – | – | – | –
N=C(N)Nc1ccc(C[C@H](N)C(=O)O)cc1 [4-guanidino phenylalanine] | – | – | – | to some extent | increased | – | –
N=C(N)NCc1ccc(C[C@H](N)C(=O)O)cc1 [4-guanidinomethylphenylalanine] | – | – | – | to some extent | increased | – | –
NC(=S)Nc1ccc(C[C@H](N)C(=O)O)cc1 [Compound 28, 4-thioureido-L-phenylalanine] | > 50 µM | > 50 µM | > 50 µM | – | – | – | –
CSC(=N)Nc1ccc(C[C@H](N)C(=O)O)cc1 [Compound 29, 4-(S-methylisothioureido)-L-phenylalanine] | > 50 µM | > 50 µM | > 50 µM | – | – | – | –
CN=C(N)NCCC[C@H](N)C(=O)O [L-NMMA, L-N-monomethyl-arginine] | – | – | – | – | – | can be inhibited | non-selective
nitroarginine | – | – | – | – | – | – | non-selective

Continued, in another order:

Ki (inducible human NOS) | Ki (human placental NOS) | Ki (human brain NOS) | Compound | renal excretion of cystine [1] | renal excretion of lysine [1] | inhibition of the synthesis of NO from L-arginine (NO synthase) | selectivity between constitutive and inducible NO synthase (NO synthase)
> 50 µM | > 50 µM | > 50 µM | CNC(=N)NCc1ccc(CC(N)C(=O)O)s1 (racemic) [Compound 20, 3-(5-(N'-methylguanidino)methyl)-2-thienyl)-DL-alanine] | – | – | – | –
≤ 10 µM | ≤ 10 µM | ≤ 10 µM | CCSC(=N)NCc1ccc(CC(N)C(=O)O)s1 (racemic) [Compound 23, 3-(5-((S-ethylisothioureido)methyl)-2-thienyl)-DL-alanine] | – | – | – | –
≤ 10 µM | ≤ 50 µM | ≤ 10 µM | CCSC(=N)NCc1ccc(C(N)C(=O)O)s1 (racemic) [Compound 25] | – | – | – | –
≤ 50 µM | ≤ 10 µM | ≤ 10 µM | CSC(=N)Nc1cccc(CC(N)C(=O)O)c1 (racemic) [Compound 26, 3-(S-methylisothioureido)-DL-phenylalanine] | – | – | – | –
≤ 10 µM | ≤ 10 µM | ≤ 1 µM | CCSC(=N)Nc1cccc(CC(N)C(=O)O)c1 (racemic) [Compound 27, 3-(S-ethylisothioureido)-DL-phenylalanine] | – | – | – | –
≤ 10 µM | ≤ 0.5 µM | ≤ 0.5 µM | CCSC(=N)Nc1ccc(C[C@H](N)C(=O)O)cc1 [Compound 30, 4-(S-ethylisothioureido)-L-phenylalanine] | – | – | – | –
